As usually defined, the AUC(0-inf) is the area under the concentration-time curve extrapolated to infinity. Low readings indicate less exposure, high ones more exposure. One may read the Cmax as the peak of the concentration-time curve.

Here are results for one compound from patent publication US20170239323A1, “ORITAVANCIN FORMULATIONS” (The Medicines Company, priority 2016, published 2017).

This data set is described as follows: Double-blind pharmacokinetic study of a single 1200 mg IV dose of oritavancin in healthy volunteers. To be noted: human, plasma, healthy subjects, average. The format is in vivo. The procedure: A randomized, double-blind, single center cohort study of a new formulation of a single 1200 mg IV dose of oritavancin in healthy volunteers, adjusting infusion time, concentration and reconstitution/administration solutions, of a single 1200 mg intravenous (IV) infusion of oritavancin in healthy adult subjects, was performed. Cohort 1 was administered the current, approved formulation of oritavancin which uses Sterile Water For Injection (SWFI) as the reconstituting agent and D5W for further dilution for a volume of 1000 mL. This infusion was given per the approved label over three hours. Cohort 2 was administered a new formulation for which hydroxypropyl-β-cyclodextrin (HPBCD) was included in the reconstitution diluent and D5W is used for further dilution for a total volume of 250 mL. This formulation was administered over two hours. Cohorts 3, 4, and 5 were administered the same new formulation as Cohort 2 (HPBCD and 250 mL of D5W); however, the infusion was administered over 90, 60, 30 minutes respectively. Two subjects in each of Cohorts 2, 3, 4, and 5 received a placebo infusion of D5W to use as a comparison when reviewing adverse event data. Healthy volunteer subjects providing informed consent and meeting all study eligibility criteria were randomized in the study and received one 1200 mg dose of IV oritavancin or placebo (cohorts 2-5 only).
COHORT 1: At the time of use, each vial was reconstituted by adding 40 mL of Sterile Water or for Injection, (“SWFI,” United States Pharmacopeia) to each 400 mg vial of oritavancin. Vials reconstituted in this manner gave a 10 mg/mL solution. After reconstitution, the compositions were combined and further diluted in 5% dextrose in water (D5W) to provide a total volume of approximately 1000 mL. At each dosing, 1200 mg of oritavancin in 1000 mL total of diluent was administered at a constant rate IV infusion over 3 hours via a single dedicated peripheral IV line (n=6).
(§1) COHORT 2: At the time of use, each vial was reconstituted by adding 4 mL of SWFI and 4 mL of 20% (w/v) HPBCD solution, to each 400 mg vial of oritavancin. Vials reconstituted in this manner provided a 50 mg/mL oritavancin solution. After reconstitution, the compositions were combined and further diluted in 5% dextrose in water (D5W) to provide a total volume of approximately 250 mL. At each dosing, 1200 mg of oritavancin in 250 mL of diluent was administered as a constant rate IV infusion over 2 hours via a single dedicated peripheral IV line (n=8) or a 2 hour placebo IV infusion of 250 mL of D5W (n=2).
as §1, with “3:” for “2:”, “90 minutes” for “2 hours”, “90 minute” for “2 hour”, “placebo” for “placebo IV”
as §1, with “4:” for “2:”, “60 minutes” for “2 hours”, “60 minute” for “2 hour”, “placebo” for “placebo IV”
COHORT 5: At the time of use, each vial was reconstituted by adding 4 mL of SWFI and 4 mL of 20% (w/v) HPBCD solution, to each 400 mg vial of oritavancin. […]

The mark [1] stands for this setting: Cohort 1: 1200 mg IV, approved formulation (SWFI, no HPBCD), D5W 1000 mL, 3 h infusion.
Where [2] appears, read: Cohort 2: 1200 mg IV, HPBCD formulation, D5W 250 mL, 2 h infusion.
Where [3] appears, read: Cohort 3: 1200 mg IV, HPBCD formulation, D5W 250 mL, 1.5 h infusion.
Setting [4] is: Cohort 4: 1200 mg IV, HPBCD formulation, D5W 250 mL, 1 h infusion.
Setting [5] is: Cohort 5: 1200 mg IV, HPBCD formulation, D5W 250 mL, 0.5 h infusion.
Setting [6] is: Cohort 6: 1200 mg IV, HPBCD formulation, NS 250 mL, 1 h infusion.

The compound `CN[C@H](CC(C)C)C(=O)N[C@H]1C(=O)N[C@@H](CC(N)=O)C(=O)N[C@H]2C(=O)N[C@H]3C(=O)N[C@H](C(=O)N[C@H](C(=O)O)c4cc(O)cc(O)c4-c4cc3ccc4O)[C@H](O[C@H]3C[C@](C)(N)[C@@H](O)[C@H](C)O3)c3ccc(c(Cl)c3)Oc3cc2cc(c3O[C@@H]2O[C@H](CO)[C@@H](O)[C@H](O)[C@H]2O[C@H]2C[C@](C)(NCc3ccc(-c4ccc(Cl)cc4)cc3)[C@@H](O)[C@H](C)O2)Oc2ccc(cc2Cl)[C@H]1O` [Oritavancin] returned an AUC(0-inf) under setting [1] of 3680 µg·h/mL; a total exposure AUC(0-inf) under setting [2] of 2710 µg·h/mL; an AUC(0-inf) under setting [3] of 2850 µg·h/mL; an AUC(0-inf) under setting [4] of 2870 µg·h/mL; an AUC(0-inf) under setting [5] of 3180 µg·h/mL; a total exposure AUC(0-inf) under setting [6] of 2960 µg·h/mL. The Cmax was 183 µg/mL under setting [1]; 153 µg/mL under setting [2]; 177 µg/mL under setting [3]; 202 µg/mL under setting [4]; 199 µg/mL under setting [5]; 206 µg/mL under setting [6].
